This is an account of results in patent US20060111327A1, “Derivatives of triptolide having a high immunosuppressive effect and high water solubility, and uses thereof” (priority 2002, published 2006).

The test system of data set [1] is cotton ball granulation in rat. Details: species or system Wister rats. Conditions: in vivo.
Another data set deals with Kunming mice. Conditions: both, mouse, in vivo, iv.
The nature of the next data set: physchem. The note with it: water.
The nature of another data set: in vivo. The note with it: both, Kunming, mouse.
The test system of a further data set is IL-6. Type of data set: cell-based, rat.
Another data set has as its system iNOS. Type of data set: cell-based, rat.
In another data set the test system is IL-2. Type of data set: cell-based, rat.
The subject of data set [2] is rat adjuvant-induced arthritis. Conditions: in vivo.
The test system of data set [3] is transplanted heart (C57BL mouse heart grafted into balb/c mouse). Conditions: in vivo.
The test system of data set [4] is rat adjuvant-induced arthritis. On the set-up: species or system SD rats. The note with it: in vivo.
Data set [5] can be described thus: Cell membrane permeability (unpublished experimental data). Type of data set: in vitro ADME. Conditions: our unpublished experimental data.
The conditions of data set [6]: background statement; cited from earlier work.
The conditions of data set [7]: in vivo; cited from earlier work.

Structures are written as SMILES. Values joined by “and” are separate entries in the source; they are usually repeats but may differ in a detail not shown here. Equal entries are not always repeated. Where two headings read alike, the source gives them in different places.

For `C[C@]12CCC(=O)C=C1CC[C@@H]1[C@@H]2[C@@H](O)C[C@@]2(C)[C@H]1CC[C@]2(O)C(=O)CO` [Hydrocordisone, reference compound], in [1], the Inhibition of swelling is 42.2% and the “effect against cotton ball granulation” value is on record as “significantly decreased weight of cotton ball granulation”.
`CC(C)[C@]12OP(=O)([O-])O[C@H]1[C@]13O[C@H]1C[C@H]1C4=C(CC[C@]1(C)[C@@]31OC1[C@H]2SC#N)C(=O)OC4.[Na+]` (stereo partly drawn) [WDY1, sodium 12-β-thiocyano triptolide-13-α-14-β-phosphate]: the “Death No. of mice” value in the data set with Kunming mice (98 mg/kg) is recorded as 0; with Kunming mice (109 mg/kg), 1; in the data set with Kunming mice (122 mg/kg) it was 4; in the data set on Kunming mice (135 mg/kg) it was 8; in the data set with Kunming mice (150 mg/kg), 9. For the same compound, the Mortality with Kunming mice (98 mg/kg) came to 0%; in the data set on Kunming mice (109 mg/kg), 10%; in the data set on Kunming mice (122 mg/kg), 40%; in the data set on Kunming mice (135 mg/kg), 80%; with Kunming mice (150 mg/kg) it was 90%. Also, the Inhibition of swelling in [1] was 45.7% and 59.3% and 46.3%. In [1], the “effect against cotton ball granulation” value is reported as “significant effect”. The compound further displayed a solubility in the data set “physchem” of more than 100 mg/mL. For the same compound, the LD50 in “in vivo” (acute toxicity LD50) was 126 mg/kg; in “in vivo” (iv, 95% limit of LD50), 119 to 133 mg/kg; in “in vivo” (iv, LD50) it was 126 mg/kg.
Compound `CC(C)[C@]12OP(=O)([O-])O[C@H]1[C@]13O[C@H]1C[C@H]1C4=C(CC[C@]1(C)[C@@]31OC1[C@H]2Cl)C(=O)OC4.[Na+]` (stereo partly drawn) [WDY2, sodium 12-β-chlorotriptolide-13-α-14-13-phosphate] yielded a solubility in the data set “physchem” of more than 100 mg/mL.
Regarding `CC(C)[C@]12O[C@H]1C1O[C@]13[C@]1(O[C@H]1C[C@H]1C4=C(CC[C@@]13C)C(=O)OC4)[C@@H]2O[PH](=O)[O-].[Na+]` (stereo partly drawn) [WDY4, sodium triptolide-14-β-phosphite], in the data set with IL-6, the “inhibition of mRNA expression of IL-6” value is reported as “completely”. Moreover, the solubility in “physchem” is more than 100 mg/mL. Moreover, the “inhibition of mRNA expression of iNOS” value with iNOS is “completely”. Moreover, the “inhibition of LPS- or PHA-induced IL-2 mRNA expression” value in the data set with IL-2 was “completely inhibited”.
On to `CC(C)[C@@]1(O)[C@H](SC#N)C2O[C@]23[C@]2(O[C@H]2C[C@H]2C4=C(CC[C@@]23C)C(=O)OC4)[C@@H]1OC(=O)CCC(=O)O` (stereo partly drawn) [WDY6, 12-β-thiocyano-13-α-hydroxy triptolide-14-β-succinic acid mono-ester], for which, in [1], the Inhibition of swelling is 42.6% and 47.1% and 49.0%; the “effect against cotton ball granulation” value is “significant effect”. Besides, the “effect in the treatment of adjuvant-induced rat arthritis” value in [2] is given as “significant effect”. For the same compound, in data set [3], the Average survival time was determined as 12.7 days; the “body weight and appetite of treated mice” value was “did not show a decrease of body weight and their appetites were normal”. In addition, the “effect on thickness of the contralateral paw (left hind paw)” value in data set [4] was “significantly decreased”.
With `CC(C)[C@]12O[C@H]1C1O[C@]13[C@]1(O[C@H]1C[C@H]1C4=C(CC[C@@]13C)C(=O)OC4)[C@@H]2OP(=O)([O-])[O-].[Na+].[Na+]` (stereo partly drawn) [WDY7, disodium triptolide-14-β-phosphate], in data set [1], the Inhibition of swelling was 41.5% and 55.6% and 56.8%; the “effect against cotton ball granulation” value is listed as “significant effect”. Also, in data set [2], the “effect in the treatment of adjuvant-induced rat arthritis” value is on record as “significant effect”. For the same compound, in data set [3], the Average survival time is on record as 13.8 days; the “anti-rejection effect” value is reported as “significant anti-rejection effect”; the “body weight and appetite of treated mice” value is “did not show a decrease of body weight and their appetites were normal”. This compound also had a solubility in “physchem” of more than 100 mg/mL. This compound came in with an LD50 in the data set “in vivo” (acute toxicity LD50) of 0.8 mg/kg.
`CC(C)[C@]12O[C@H]1[C@@H]1O[C@]13[C@]1(O[C@H]1C[C@H]1C4=C(CC[C@@]13C)C(=O)OC4)[C@@H]2O` [triptolide]: the “cell membrane permeability” value in data set [5] was “Low cell membrane permeability”. In data set [6], the “water solubility” value was “Low water solubility”. In addition, the LD50 in data set [7] was 0.85 mg/kg body weight.

By solubility is commonly meant how much of the substance goes into solution per volume. Higher therefore signals much dissolved substance.
